Assay [1] addresses T1, ClbP (Escherichia coli, UniProt Q0P7K6). The experiment in a line: ClbP whole cell activity (inhibition) assay, fluorogenic substrate. The format is cell-based, E. coli. How it is done: Whole Cell Activity Assay
(§1) 1) E. coli ClbP+ were taken from a frozen stock and streaked onto BHI plates. They were grown aerobically at 37° C. overnight in the incubator.
(§2) 1) A single colony was selected from the plate and inoculated into 30 mL LB in a 50 mL conical vial eight times (240 mL total). The bacteria were grown aerobically overnight (16-20 h) at 37° C. on a nutator with rocking.
1) The saturated overnight culture was centrifuged to create a firm pellet (3,200 g, 10 min, 4° C.). In a biosafety cabinet, the supernatant was removed and then the pellet was resuspended in 30 mL sterile PBS.
2) The bacteria were centrifuged again (3,200 g, 10 min, 4° C.). The supernatant was removed, and the pellet was resuspended in sterile PBS buffer (6 mL) in each of the 8 tubes. This fivefold concentrated bacterial solution was the working solution.
3) The bacterial working solution (192 μL) was mixed with inhibitor (6 μL, final concentration was 300, 100, 33.3, 11.1, 3.7, 1.2, 0.4, or 0 μM). Fluorogenic substrate (2 μL, final concentration 5 μM) was immediately added across the plate to initiate the reaction. As a control, each plate contained Compound No. III in this dose response curve. The bacterial concentration was fivefold concentrated compared to the original saturated overnight culture. Carryover from DMSO was 4% (v/v). All compounds were tested in singlicate.
4) The plate was loaded into a spectrophotometer preheated to 37° C. The fluorescence was recorded every 2 min for 46 min. The excitation wavelength was 360 nm (20 nm bandwidth), the emission wavelength was 460 nm (20 nm bandwidth), the optics position was bottom, the gain was 65, the light source was a tungsten bulb, and the read speed was normal.
5) The linear portion of the fluorescence increase was 10-30 min. The rate of fluorescence increase (A.U./min) for each well in an inhibitor series was normalized to the 0 μM inhibitor condition. The normalized activity as a function of inhibitor concentration was then fit to a three parameter IC50 curve in Graphpad Prism.
(§3) “A” indicates an IC50 value less than 100 μM, “B” indicates an IC50 between 100 and 300 μM, “C” indicates an IC50 above 300 μM.

In assay [2] the target is T1, ClbP. The assay can be described thus: ClbP cell lysate activity (inhibition) assay, fluorogenic substrate. The format is biochemical. The settings on record: ClbP Lysate Inhibition Assay: IC50, E. coli ClbP+ lysozyme-EDTA lysates, 5 μM fluorogenic substrate, inhibitor 0-300 μM, 37° C., singlicate. Here is the method: Cell Lysate Activity Assay
as §1, §2
1) The saturated overnight culture was centrifuged to create a firm pellet (3,200 g, 10 min, 4° C.). The supernatant was removed and then the pellet was resuspended in 30 mL sterile PBS.
2) The bacteria were centrifuged again (3,200 g, 10 min, 4° C.). The supernatant was removed, and the pellet was resuspended in sterile PBS buffer (3 mL) in each 8 tubes to make a tenfold concentrated bacterial solution.
3) A lysozyme-EDTA (LE) solution was made in ddH2O (0.05 mg/mL lysozyme, 0.25 M EDTA).
4) For each of the eight tubes, LE solution (3 mL) was mixed with concentrated bacterial solution (3 mL). This mixture was incubated at 37° C. for 30 min to generate the lysates.
5) The lysates (192 μL) were mixed with inhibitor (6 μL, final concentration was 300, 100, 33.3, 11.1, 3.7, 1.2, 0.4, or 0 μM). Fluorogenic substrate (2 μL, final concentration 5 μM) was immediately added across the plate to initiate the reaction. As a control, each plate contained Compound No. III in this dose response curve. The final concentration of bacterial lysates was fivefold concentrated compared to the original saturated overnight culture. Carryover from DMSO was 4% (v/v). All compounds were tested in singlicate.
6) The plate was loaded into a spectrophotometer preheated to 37° C. The fluorescence was recorded every 2 min for 46 min. The excitation wavelength was 360 nm (20 nm bandwidth), the emission wavelength was 460 nm (20 nm bandwidth), the optics position was bottom, the gain was 65, the light source was a tungsten bulb, and the read speed was normal.
7) The linear portion of the fluorescence increase was 0-20 min. The rate of fluorescence increase (A.U./min) for each well in an inhibitor series was normalized to the 0 μM inhibitor condition. The normalized activity as a function of inhibitor concentration was then fit to a three parameter IC50 curve in Graphpad Prism.
as §3

In the next assay the target is Full-length WT ClbP (Escherichia coli, UniProt Q0P7K6). The assay can be described thus: ClbP molecular (purified protein) enzymatic inhibition assay, fluorogenic substrate. The format is biochemical, E. coli. How it is done: ClbP Molecular (Purified Protein) Assay
1) Full-length WT ClbP was thawed on ice. A diluted enzyme solution (2 nM) was made by mixing 3.57 μL of enzyme with 20 mL of reaction buffer (50 mM Tris pH 8.0, 200 mM NaCl, 0.02% (w/v) n-dodecyl-b-D-maltoside (DDM)).
2) In a 96 well plate, the diluted protein solution (73.5 μL) was mixed with inhibitor (1.5 μL, of varying concentrations, see below) and preincubated for 15 min at room temperature. Then, reaction buffer (75 μL) containing 10 μM fluorogenic substrate was added to initiate the reaction. After addition of substrate, the final concentrations were 1 nM full-length WT ClbP, 5 μM fluorogenic substrate in 50 mM Tris pH 8.0, 200 mM NaCl, 0.02% (w/v) DDM, with either 0, 0.14, 0.41, 1.2, 3.7, 11, 33, or 100 μM inhibitor. For all conditions, the DMSO carryover was 2% (v/v) at the preincubation stage and 1% in the reaction stage. Compound No. III was always present as a control in each plate, and all compounds were tested in singlicate. In previous assays, the Km of the fluorogenic substrate was determined to be approximately 5 μM.
3) Immediately after addition of substrate to enzyme, the plate was transferred into a spectrophotometer held at room temperature. The fluorescence was recorded every 1.5 min for 15 min. The excitation wavelength was 360 nm (20 nm bandwidth), the emission wavelength was 440 nm (20 nm bandwidth), the optics position was bottom, the gain was extended, the light source was a xenon flash lamp, and the read speed was normal.
4) The linear portion of the fluorescence increase is at least from 0-6 min, so this time regime is used. The rate of fluorescence increase (A.U./min) for each well in an inhibitor series was normalized to the 0 μM inhibitor condition. The normalized activity as a function of inhibitor concentration was then fit to a three parameter IC50 curve in Graphpad Prism.
as §3

For orientation: IC50 means the midpoint of a concentration-inhibition curve.

Consider `CCCCCCCC(=O)N[C@H](CC(N)=O)C(=O)N[C@H](C)Cc1ccc(O)cc1` [Compound CCXLV], for which the half-maximal inhibitory concentration (IC50) against ClbP [1], against ClbP [2] and against Full-length WT ClbP was less than 100 µM throughout.

For `CCCCCCCC(=O)N[C@H](CC(N)=O)C(=O)NCCn1cnnc1` [Compound CCXXXIV], the 50% inhibitory concentration (IC50) is less than 100 µM against ClbP [1], more than 300 µM against ClbP [2] and 100 to 300 µM at Full-length WT ClbP.

Take `CCCCCCCC(=O)N[C@H](CC(N)=O)C(=O)NCCc1ccc(OC)cc1` [Compound CXCIX]: the IC50 on ClbP [1], on ClbP [2] and on Full-length WT ClbP was less than 100 µM throughout.

For `CCCCCCCC(=O)N[C@H](CC(N)=O)C(=O)NCCc1ccc(C(F)(F)F)cc1` [Compound CXCV], the 50% inhibitory concentration (IC50) against ClbP [1] was more than 300 µM; on ClbP [2], more than 300 µM; against Full-length WT ClbP, 100 to 300 µM.

As for `NC(=O)C[C@@H](NC(=O)/C=C/CC1CCCC1)C(=O)NCCc1ccc(O)cc1` [Compound CCLX], the half-inhibitory concentration (IC50) at ClbP [1], at ClbP [2] and at Full-length WT ClbP was less than 100 µM throughout.

Turning to `CCCCCCC(C)(C)C(=O)N[C@@H](CNCCc1ccccc1)CC(N)=O` [Compound CCXII], the IC50 against ClbP [1] is more than 300 µM; against ClbP [2], more than 300 µM; at Full-length WT ClbP, 100 to 300 µM.

With `O=C(C[C@@H](NC(=O)CCCC1CCCC1)C(=O)NCCc1ccc(O)cc1)NO` [Compound CCXCIX], the IC50 against ClbP [1], against ClbP [2] and on Full-length WT ClbP was less than 100 µM in each case.

Take `CCCCCCCC(=O)N[C@H](CC(N)=O)C(=O)NCCc1nnn[nH]1` [Compound CCXXXIII]: the 50% inhibitory concentration (IC50) against ClbP [1], on ClbP [2] and on Full-length WT ClbP was less than 100 µM each time.

As to `CCCCCCCC(=O)N[C@H](CC(N)=O)C(=O)c1nccn1Cc1ccccc1` [Compound CCLVIII], the concentration for half-maximal inhibition (IC50) was more than 300 µM against ClbP [1], more than 300 µM on ClbP [2] and 100 to 300 µM against Full-length WT ClbP.

Consider `CCCCCCCC(=O)N[C@H](CC(N)=O)C(=O)NCCN1CCN(C)CC1` [Compound CXC], for which the IC50 on ClbP [1] is more than 300 µM; against ClbP [2], more than 300 µM; against Full-length WT ClbP, 100 to 300 µM.

For `O=C(/C=C/C1CCCCC1)N[C@H](CC(=O)NO)C(=O)NCCc1ccc(O)cc1` [Compound CCXCIV], the IC50 on ClbP [1], on ClbP [2] and at Full-length WT ClbP was less than 100 µM throughout.

`CCCCCCCC(=O)N[C@@H](CNC(C)(C)C)CC(N)=O` [Compound VIII]: the half-maximal inhibitory concentration (IC50) against ClbP [1], against ClbP [2] and on Full-length WT ClbP was less than 100 µM each time.

With `CCCCCCCC(=O)N[C@H](CC(=O)NO)C(=O)NCCc1ccc(O)c(O)c1` [Compound CCXCIII], the IC50 on ClbP [1], on ClbP [2] and on Full-length WT ClbP was less than 100 µM throughout.

Consider `CCCCCCCC(=O)N[C@H](CC(N)=O)C(=O)N(C)CCc1ccc(O)cc1` [Compound CCLXXVII], for which the IC50 at ClbP [1], against ClbP [2] and at Full-length WT ClbP was less than 100 µM in each case.

Take `CC(=O)N[C@H](CC(N)=O)C(=O)NCCc1ccccc1` [Compound CCLXV]: the figures for the IC50 against ClbP [1], on ClbP [2] and against Full-length WT ClbP were more than 300 µM, more than 300 µM and 100 to 300 µM, respectively.

`CCCCCCCC(=O)N[C@H](CC(N)=O)C(=O)NCCn1cccn1` [Compound CCXXVIII]: the half-inhibitory concentration (IC50) against ClbP [1], against ClbP [2] and on Full-length WT ClbP was less than 100 µM each time.

For the compound `CCCCCCCNC(=O)[C@H](CC(N)=O)NC(=O)Oc1ccccc1` [Compound CCX], the IC50 at ClbP [1] was more than 300 µM; against ClbP [2] it was more than 300 µM; at Full-length WT ClbP it was 100 to 300 µM.

As to `CCCCCCCC(=O)N[C@H](CC(N)=O)C(=O)c1nccn1C` [Compound CCLVII], the concentration for half-maximal inhibition (IC50) against ClbP [1] was more than 300 µM; against ClbP [2] it was more than 300 µM; against Full-length WT ClbP, 100 to 300 µM.

As to `CCCCCCCCCCCC(=O)N[C@H](CC(N)=O)C(=O)NCCc1ccccn1` [Compound CCCX], the 50% inhibitory concentration (IC50) against ClbP [1] was more than 300 µM; on ClbP [2] it was less than 100 µM; against Full-length WT ClbP, less than 100 µM.
